One may read the EC50 as the concentration at which the effect is half-maximal. As usually defined, the ED50 is the midpoint of the dose-response relation. As a reminder, the inhibition is the drop in the measured response relative to a control, in per cent.

In test [1] the target is T1, PepT1 (Homo sapiens, UniProt P46059).
T1 construct: expressed in transfected cells; host or cells: HeLa cells (ATCC), transient transfection with FUGENE6
T1 sequence (P46059 1-708): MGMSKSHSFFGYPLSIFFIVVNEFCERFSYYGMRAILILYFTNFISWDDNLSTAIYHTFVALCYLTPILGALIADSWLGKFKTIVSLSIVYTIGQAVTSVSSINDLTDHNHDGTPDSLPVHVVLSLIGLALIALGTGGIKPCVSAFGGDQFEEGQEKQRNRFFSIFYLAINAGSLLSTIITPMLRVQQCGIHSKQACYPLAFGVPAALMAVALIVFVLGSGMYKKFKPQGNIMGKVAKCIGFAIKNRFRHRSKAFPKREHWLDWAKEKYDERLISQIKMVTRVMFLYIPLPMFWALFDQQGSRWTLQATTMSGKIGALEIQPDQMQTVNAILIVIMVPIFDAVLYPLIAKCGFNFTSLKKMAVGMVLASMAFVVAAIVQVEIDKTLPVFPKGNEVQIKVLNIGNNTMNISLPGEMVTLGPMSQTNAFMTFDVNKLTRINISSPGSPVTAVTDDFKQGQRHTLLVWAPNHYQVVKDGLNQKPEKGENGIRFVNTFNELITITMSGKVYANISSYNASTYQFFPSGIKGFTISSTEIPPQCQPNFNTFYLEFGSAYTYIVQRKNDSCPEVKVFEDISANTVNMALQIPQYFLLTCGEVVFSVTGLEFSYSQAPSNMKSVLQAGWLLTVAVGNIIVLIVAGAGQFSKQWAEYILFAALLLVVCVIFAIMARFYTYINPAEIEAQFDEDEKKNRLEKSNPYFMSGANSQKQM
Put plainly: In Vitro PepT1 GlySar Inhibition Screen. The class given is cell-based. The conditions noted are these: for GlySar uptake inhibition, mean values ± standard deviation (controls): negative and positive controls run in parallel, n=18-19; for inhibition at 5000 µM: prodrug at 5 mM, pH 6.0, PepT1 transiently transfected HeLa cells, 5 μM [14C]Gly-Sar and 20 μM cold Gly-Sar, read-out: Mean GlySar Uptake Inhibition %. As for the experimental part:
PepT1 assays are established to examine the ability of the amino acid prodrug compounds to interact with the intestinal absorption transporter PepT1.
HeLa cells, derived from human cancer cells, (American Type Culture Collection) are grown in Hyclone Medium (Invitrogen, Cat# SH30243) containing 10% fetal bovine serum (FBS), 0.1 mM non essential amino acids (NEAA), and 100 units/mL penicillin with 100 μg/mL streptomycin at 37° C. in a 5% CO2 humidified atmosphere. The cell line is used for up to 40 passages and then discarded. Frozen cells in 1 mL vials are thawed in water bath for 1-2 minutes and added to 5 mL of cell medium at 37° C. Each of the T-flasks is provided with 8.5 mL of the fresh medium and 1.5 mL of the cell stock. Cells are passaged twice during a week. […] Each new flask receives a combination of 8.5 mL of fresh medium and 1.5 mL of cell stock, in order to obtain 1:6 cell dilution. Cells are incubated at 37° C., until ready for the uptake study.
Cells that are 70-80% confluent in the T-flasks are plated 1 day prior to the transfection procedure. The flask with the cell stock is treated with PBS-EDTA and trypsin to detach the cells, and transfection medium is used from this point. Transfection medium consists of Dulbecco's Modified Eagle Medium (DMEM)+NEAA. To each well, 0.5 mL of the cell mixture is added (1.3×10^5 is the desired cell concentration) and the cells are incubated at 37° C. overnight. Twenty four hours before the assay, cells are transfected with PEPT1. Transfection mixture is prepared by mixing 600 μL of serum free transfection medium, 18 μL of FUGENE6® (Roche Diagnostics), and 11 μg of the PepT1 DNA. The transfection reagent-DNA complex is incubated for 20 minutes and 24 μL of the reagent-DNA complex is added to each well.
Inhibition of PEPT1-mediated [glycyl-1-2-^14C]Glyclysarcosine (GlySar) uptake activity is measured in the cells cultured in the 24-well plates 24-hours post transfection as previously published (Zhang et al. 2004. J. Pharm. Exper Ther. 310:437-445). To measure the ability of a compound of the present invention to inhibit the uptake of [^14C]Gly-Sar, prodrug compounds are incubated with 80 to 90% confluent PepT1 transiently transfected HeLa cells at 5 mM in pH 6.0 uptake medium in the presence of 5 μM [^14C]Gly-Sar (Moravek Biochemicals) and 20 μM cold Gly-Sar. Uptake media consists of 140 mM NaCl, 5.4 mM KCl, 1.8 mM CaCl2, 0.8 mM MgSO4, 5 mM Glucose, 25 mM tris(hydroxymethyl)aminomethane buffer (TRIS). The solution is then brought to pH 6.0 using 2-(N-morpholino)ethanesulfonic acid. The incubation volume is 500 μL and is performed at room temperature for 3 minutes. To stop the uptake at the conclusion of the incubation time, the uptake media is aspirated off of the cell monolayer and 500 μL of ice cold PBS added to the well. The cells are washed 3 times with 500 μL of room temperature PBS without Ca^+2 and Mg^+2. The cells are then lysed with 300 μL of 1% TRITON® X100 H2O solution. A 200 μL aliquot is removed and radioactivity is determined by liquid scintillation counting to measure the [^14C]Gly-Sar present in each of the incubation wells. A no inhibitor control is established and the percent inhibition of each prodrug is calculated with respect to this control.

The target of test [2] is T2, human mGlu2 receptor (Homo sapiens, UniProt Q14416).
T2 construct: expressed in transfected cells; host or cells: AV-12 cells (Syrian hamster fibroblasts), co-transfected with rat EAAT1 and Galpha15
Put plainly: Human mGlu2 Agonist FLIPR Assay. The test is classed as cell-based. The conditions noted are these: for Emax: percent stimulation relative to maximal glutamate response (100 μM glutamate), read-out: Relative % Efficacy. From the text: AV-12 cell lines, derived from Syrian Hamster fibroblasts and stably expressing the human mGlu2 receptor and co-transfected with the rat glutamate transporter EAAT 1 (Excitatory Amino Acid Transporter 1) and the Gα15 subunit, are used for these studies. The expression of Gα15 allows Gi-coupled receptors to signal through the phospholipase C pathway, resulting in the ability to measure receptor activation by a fluorometric calcium response assay. The cell lines are maintained by culturing in Dulbecco's Modified Eagle's Medium (DMEM) with high glucose and pyridoxine hydrochloride supplemented with 5% dialyzed fetal bovine serum, 1 mM sodium pyruvate, 10 mM HEPES [4-(2-hydroxyethyl)-1-piperazineethanesulfonic acid], 1 mM of L-glutamine, and 5 μg/mL blasticidin (all media are purchased from Invitrogen). Confluent cultures are passaged biweekly using an enzyme-free dissociation solution (Chemicon S-004-B).
Intracellular calcium levels are monitored before and after the addition of compounds using a Fluorometric Imaging Plate Reader (FLIPR®, Molecular Devices). The assay buffer is comprised of Hank's Buffered Salt Solution (HBSS; Sigma) supplemented with 20 mM HEPES. […] The dye solution is removed and replaced with fresh assay buffer (50 μL per well). […] Results are analyzed using PRISM® v4.03 (GraphPad Software). […] Exemplified compounds of the present invention are solubilized as 10 mM stocks in 0.1N NaOH and stored at −20 C. They are diluted through a three-fold dilution series into assay buffer. After taking an initial 5-sec fluorescent read on the FLIPR® instrument, a compound of the present invention is added to the cell plate (50 μL per well). Data are collected every second for the first 30 seconds and then every 3 seconds for a total of 90 seconds in order to detect agonist activity. The maximal response is defined as that induced by ECmax (100 μM glutamate). The compound effect is measured as maximal minus minimal peak heights in relative fluorescent units (RFUs) corrected for basal fluorescence measured in the absence of glutamate. Determinations are carried out using single plates. Agonist effects are quantified as percent stimulation induced by compound alone relative to the maximal glutamate response. All data are calculated as relative EC50 values using a four-parameter logistic curve fitting program (ACTIVITY BASE® v5.3.1.22).

Test [3] relates to PCP-induced hyperlocomotor activity in mice. Put plainly: Reversal of Phencyclidine (PCP)-Induced Hyperlocomotor Activity in Mice. The class given is in vivo, mouse. Particulars: Mus musculus, i.p. administration, 30 minutes prior to 7.5 mg/kg PCP. From the text: This assay for Reversal of Phencyclidine (PCP)-Induced Hyperlocomotor Activity in Mice is run substantially as the Reversal of Phencyclidine (PCP)-Induced Hyperlocomotor Activity in Rats assay provided above, using mice instead of rats and with the changes noted below.
Motor activity is monitored by placing individual male, ICR (CD-1), (Harlan, Indianapolis, Ind.) mice in transparent, plastic shoe-box cages of the dimensions 45×25×20 cm, with 0.5 cm depth of wood chips as bedding, and plastic lid on top of the cage. Motor monitors (Kinder Scientific) consist of a rectangular rack of 12 photobeams arranged in an 8×4 formation, (or a high density grouping of 22 in a 15×7 pattern) at a height of 2.5 cm. The shoe box cage is placed inside of these racks, with the racks on a 3 foot high tabletop in an isolated room. A compound of the present invention is dosed (intraperitoneal route, non-prodrug) usually within a range of 0.3-30 mg/kg; though higher doses may be used, 30 minutes prior to a 7.5 mg/kg challenge dose of phencyclidine (PCP). On the test day, mice are placed in the test cage and allowed to acclimate for 45 minutes prior to PCP challenge; mice are monitored for an additional 60 minutes following PCP administration.
Power analyses have determined that 7-8 mice per group are needed to have appropriate statistical power for detecting treatment differences (power=0.8).

In test [4] the test system is immobility in forced swim test in mice. Put plainly: Forced Swim Test in Rodents (mice). The test is classed as in vivo, mouse. Particulars: intraperitoneal dosing 60 min prior to testing. As for the experimental part: In this assay, mechanisms with purported antidepressant-like activity decrease immobility in a brief inescapable forced swim episode.
The forced-swim test was conducted in mice (male, NIH-Swiss mice, 20-25 g, Harlan Sprague-Dawley, Indianapolis, Ind.). Mice are placed in clear plastic cylinders (diameter 10 cm; height: 25 cm) filled to 6 cm with 22-25° C. water for six min. The duration of immobility is recorded during the last 4 min of a six-minute trial. The compounds of Examples 2, 3, 8, 11, and 12 are tested following intraperitoneal dosing, 60 min prior to testing. Imipramine is used as a positive control for these studies. Compounds are formulated in a water vehicle, with minimal NaOH added. The amount of time spent immobile (defined as movements only necessary to keep the subject's head above water) is the dependent measure and recorded by an observer blinded to the drug treatment of the subjects. Data are analyzed by post-hoc Dunnett's test with alpha level set at 0.05.

Where a name gives a salt, the structure may show the parent alone.

T2 sequence (Q14416 19-872): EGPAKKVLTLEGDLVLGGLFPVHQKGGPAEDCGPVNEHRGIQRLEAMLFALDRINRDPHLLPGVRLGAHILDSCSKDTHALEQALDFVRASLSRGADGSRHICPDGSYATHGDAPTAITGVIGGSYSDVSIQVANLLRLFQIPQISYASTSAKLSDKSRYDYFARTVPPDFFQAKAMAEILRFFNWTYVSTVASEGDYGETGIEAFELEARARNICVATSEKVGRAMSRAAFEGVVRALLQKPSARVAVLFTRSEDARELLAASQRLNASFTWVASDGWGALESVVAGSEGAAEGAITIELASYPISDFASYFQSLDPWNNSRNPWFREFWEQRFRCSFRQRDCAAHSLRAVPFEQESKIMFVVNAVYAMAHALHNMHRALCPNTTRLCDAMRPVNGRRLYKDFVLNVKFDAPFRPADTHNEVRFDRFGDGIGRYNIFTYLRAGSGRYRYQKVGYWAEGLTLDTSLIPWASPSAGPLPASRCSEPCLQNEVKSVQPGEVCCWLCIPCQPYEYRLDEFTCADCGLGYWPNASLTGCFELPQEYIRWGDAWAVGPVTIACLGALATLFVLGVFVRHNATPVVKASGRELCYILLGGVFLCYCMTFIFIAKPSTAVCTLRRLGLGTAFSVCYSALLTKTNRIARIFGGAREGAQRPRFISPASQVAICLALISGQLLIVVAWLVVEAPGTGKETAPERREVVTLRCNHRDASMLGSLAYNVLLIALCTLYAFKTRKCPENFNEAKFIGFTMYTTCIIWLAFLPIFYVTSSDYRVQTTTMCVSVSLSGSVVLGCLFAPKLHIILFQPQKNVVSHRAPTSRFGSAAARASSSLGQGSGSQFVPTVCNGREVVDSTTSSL

Take `CC1=C(C(=O)O)N2C(=O)[C@@H](NC(=O)[C@H](N)c3ccc(O)cc3)[C@H]2SC1` [Cefadroxil, reference compound]: in test [1], the “GlySar uptake inhibition, mean values ± standard deviation (controls)” value is reported as 53.2±13.2%.

As to `Cl.N[C@@]1(C(=O)O)C[C@@H](Sc2cn[nH]n2)[C@H]2[C@H](C(=O)O)[C@H]21` [Example 1, (1R,2S,4R,5R,6R)-2-Amino-4-(2H-[1,2,3]triazol-4-ylsulfanyl)-bicyclo[3.1.0]hexane-2,6-dicarboxylic acid hydrochloride], the concentration giving a half-maximal response (EC50) in test [2] (hMGLUR2 FLIPR assay, AV-12 cells expressing human mGlu2, calcium response, read-out: Relative EC50) turned out to be 46 nM. The Emax in test [2] worked out at 92.6%. Besides, the ED50 in test [3] came to 18.4 mg/kg.

On to `Cl.N[C@@]1(C(=O)O)C[C@@H](Sc2nnc(C(F)(F)F)[nH]2)[C@H]2[C@H](C(=O)O)[C@H]21` [Example 2, (1R,2S,4R,5R,6R)-2-Amino-4-(5-trifluoromethyl-1H-[1,2,4]triazol-3-ylsulfanyl)-bicyclo[3.1.0]hexane-2,6-dicarboxylic acid hydrochloride], for which the Emax in test [2] amounted to 78.5%. Besides, in test [3], the median effective dose (ED50) turned out to be 14.4 mg/kg.

`Nc1nnc(S[C@@H]2C[C@@](N)(C(=O)O)[C@@H]3[C@@H](C(=O)O)[C@@H]32)[nH]1` [Example 3, (1R,2S,4R,5R,6R)-2-Amino-4-(5-amino-[1,3,4]triazol-2-ylsulfanyl)-bicyclo[3.1.0]hexane-2,6-dicarboxylic acid]: the ED50 in test [3] was found to be 17.1 mg/kg. Moreover, the “ED60 (60% of the amount of immobility relative to vehicle controls)” value in test [4] is < 3 mg/kg.

Turning to `N[C@@]1(C(=O)O)C[C@H](Sc2n[nH]c(C(F)(F)F)n2)[C@H]2[C@H](C(=O)O)[C@H]21` [Example 12, (1R,2S,4S,5R,6R)-2-Amino-4-[[5-(trifluoromethyl)-1H-1,2,4-triazol-3-yl]sulfanyl]bicyclo[3.1.0] hexane-2,6-dicarboxylic acid hydrochloride], the Emax in test [2] came to 92.1%.

Turning to `C[C@H](N)C(=O)N[C@@]1(C(=O)O)C[C@@H](Sc2nnc(C(F)(F)F)[nH]2)[C@H]2[C@H](C(=O)O)[C@H]21` [Example 16, (1R,2S,4R,5R,6R)-2-[[(2S)-2-Aminopropanoyl]amino-4-[[5-(trifluoromethyl)-1H-1,2,4-triazol-3-yl]thio]bicyclo[3.1.0]hexane-2,6-dicarboxylic acid hydrochloride], the inhibition at 5000 µM in test [1] is 53.9%.

In the case of `NCC(=O)N[C@@]1(C(=O)O)C[C@H](Sc2nnc[nH]2)[C@H]2[C@H](C(=O)O)[C@H]21` [Example 22, (1R,2S,4S,5R,6R)-2-[(-2-Aminoacetyl)amino]-4-(4H-1,2,4-triazol-3-ylsulfanyl)bicyclo[3.1.0]hexane-2,6-dicarboxylic acid hydrochloride], the inhibition at 5000 µM in test [1] stood at 46.7%.

For `CC(C)C[C@H](N)C(=O)N[C@@]1(C(=O)O)C[C@H](Sc2nnc[nH]2)[C@H]2[C@H](C(=O)O)[C@H]21` [Example 24, (1R,2S,4S,5R,6R)-2-(L-leucylamino)-4-(4H-1,2,4-triazol-3-ylsulfanyl)bicyclo [3.1.0]hexane-2,6-dicarboxylic acid hydrochloride], the inhibition at 5000 µM in test [1] was found to be 47.1%.

On to `NCC(=O)O` [Glycine, reference compound], for which the “GlySar uptake inhibition, mean values ± standard deviation (controls)” value in test [1] is recorded as 10.1±9.5%.

These data come from patent US9296710B2, “Bicyclo (3.1.0) hexane-2, 6-dicarboxylic acid derivatives as mGlu2 receptor agonist” (Eli Lilly and Company, priority 2011, dated 2016).
